Data published in patent publication US20100304975A1, “PROCESS FOR […] RESISTANCE TO AN ABIOTIC STRESS” (ELICITYL, priority 2007, published 2010).

Legend:
Format in all cases: in vivo
[1] = system: Chardonnay; experiment: Frost-resistance of vine plants after foliar spraying, Chardonnay; details: for Gain: cold stress -3 to -5° C. 12 hours after application
Procedure: (§1) Plants originating from different vine varieties: the Chardonnay, Pinot noir and Cabernet-Sauvignon varieties are used. Each sample, composed of 5 to 21 plants, is treated by foliar spraying at different vegetative stages on the BBCH scale with a mixture containing the xyloglucan elicitor, HEPTAMALOXYLOGLUCAN or XFGol in solution at variable doses; the spraying of 2.5 ml of solution per plant is carried out using a sprayer (deviation of +/−1%).
(§2) 12 hours after the application of the elicitor, the plants were exposed to cold stress at −3 to −5° C. After exposure to the cold, the plants are placed in a climatic chamber at 20° C. with a 12-hour day/night alternation. The appearance of the leaves is observed 24 hours and 72 hours after removal from the cold. The effects of the cold are evaluated by observing the foliar necroses induced by frost and the plants are kept for several months in order to monitor their subsequent development.
(§3) The results are expressed by the protection index IP: IP (%)=100−P; P, being the proportion of necrotized leaves.

[2] = system: Cabernet-Sauvignon; experiment: Frost-resistance of vine plants after foliar spraying, Cabernet-Sauvignon; details: for Gain: Cabernet Sauvignon, cold stress -3 to -5° C. 12 hours after application
Procedure: as §1, §2, §3

[3] = system: kiwi plants; experiment: Frost-resistance of kiwi plants after foliar spraying (death of buds); details: for Gain % / IP (protection index of kiwi buds; IP=100-P, P=proportion of dead buds): elicitor 500 nM
Procedure: The elicitor which is used is HEPTAMALOXYLOGLUCAN (or XFGol).
Before the cold stress, plants are treated or not by foliar spraying with a spray mixture containing HEPTAMALOXYLOGLUCAN.
After application of the spraying mixture, the plants were exposed to cold stress. In order to reproduce artificial conditions of cold stress, plants were placed in a climatic chamber.
The effects of cold are evaluated by observing the death of buds due to frost.
The results are expressed by the protection index IP: IP (%)=100-P; P, being the proportion of dead buds.
The results are also expressed in gain:
Increase of protection of kiwi plants elicited by the product PEL101GV (500 nM). IP corresponds to the protection index of kiwi buds, 28 days after the cold stress at −2,8° C. or −4° C. (IP=100−P; P=proportion of dead buds)

[4] = system: Pinot noir; experiment: Frost-resistance of vine plants after foliar spraying, Pinot noir; details: for Gain: cold stress -3 to -5° C. 12 hours after application
Procedure: as §1, §2, §3

[5] = spray mixture containing 5 nM, compared within a range of 0.5 nM to 5000 nM
[6] = 28 days after the cold stress at -2.8° C.
[7] = 28 days after the cold stress at -4° C.

What does the source list for CC1OC(OC2C(OC3C(OCC4OC(OC(C(O)CO)C(O)C(O)CO)C(O)C(O)C4OC4OC(COC5OCC(O)C(O)C5O)C(O)C(O)C4O)OCC(O)C3O)OC(CO)C(O)C2O)C(O)C(O)C1O (stereo not drawn) [HEPTAMALOXYLOGLUCAN]?
Gain ([1]; elicitor 0.5 nM foliar spray): 28%; Gain ([1]; elicitor 5 nM foliar spray): 42%; Gain ([1]; elicitor 50 nM foliar spray): 9%; Gain ([1]; elicitor 500 nM foliar spray): 0%; Gain ([1]; elicitor 5000 nM foliar spray): 28%; protection against frost [1, 5]: more efficient than the other doses; Gain ([2]; elicitor 5 nM foliar spray): 46%; Gain ([2]; elicitor 50 nM foliar spray): 35%; Gain ([2]; elicitor 500 nM foliar spray): 76%; protection against frost ([2]; Cabernet sauvignon, spray mixture containing 500 nM, compared with the other doses): more efficient than the other doses; Gain % [3, 6]: 27%; IP (protection index of kiwi buds; IP=100-P, P=proportion of dead buds) [3, 6]: 81%; Gain % [3, 7]: 87%; IP (protection index of kiwi buds; IP=100-P, P=proportion of dead buds) [3, 7]: 56%; protection of the kiwi buds against frost ([3]; treated versus control): better protection; Gain ([4]; elicitor 0.5 nM foliar spray): 0%; Gain ([4]; elicitor 5 nM foliar spray): 34%; Gain ([4]; elicitor 50 nM foliar spray): 0%; Gain ([4]; elicitor 500 nM foliar spray): 27%; Gain ([4]; elicitor 5000 nM foliar spray): 25%; protection against frost [4, 5]: more efficient than the other doses
